Assay: Human HepG2 cell viability assay in 384 well format
Assay type: toxicity, cell-based
Set-up: dose 125 nL, time 70.5 hour; concentration not given beside the values
Details: HepG2 cells, read-out: Inhibition

| SMILES | cytotoxicity at 70.5 h [%] |
| --- | --- |
| Cc1ccccc1-c1cncc(C2CCN(C3CCOCC3)CC2)n1 | 1 |
| COc1ccc(CN(C)[C@@H]2CN(C(=O)c3cnn(C)c3)C[C@H]2O)cc1 | -6.51 |
| Cc1ccccc1-c1cncc(C2CCN(S(=O)(=O)N(C)C)CC2)n1 | -2.74 |
| COc1ccc(CN(C)[C@@H]2CN(C(=O)c3cccnc3)C[C@H]2O)cc1 | 2.56 |
| CCCN(C(=O)c1cnc(C)cn1)c1nc2c(s1)CCc1c-2cnn1C | 14.9 |
| O=C(c1cccs1)N1CCc2c(nc(N3CCCC3)[nH]c2=O)C1 | -0.974 |
| CC(C)C(=O)N1CCC(n2nc(-c3ccco3)ccc2=O)CC1 | 15.9 |
| CS(=O)(=O)c1snnc1C1CCCN(Cc2ccncc2)C1 (configuration not stated) | -11.9 |
| Cc1nc(O)c2nnn(C[C@H]3CCCN3C(=O)c3ccc(F)cc3)c2n1 | -4.53 |
| Cc1nc(O)c2nnn(C[C@H]3CCCN3C(=O)C3CCCC3)c2n1 | -4.22 |
| COc1ccc(CN(C)[C@@H]2CN(C(=O)c3cccn3C)C[C@H]2O)cc1 | 16.9 |
| CC(=O)N1CCC(c2nn(C)c3nccnc23)C1 (configuration not stated) | -5.3 |
| CN1CCCC(c2cccc(CCC(N)=O)n2)C1 (configuration not stated) | -3.92 |
| CNC(=O)C1(c2cnccn2)CCCN1C(=O)c1ccccn1 (configuration not stated) | 8.19 |
| CNC(=O)C1(c2cnccn2)CCCN1C(=O)c1cccc(C)n1 (configuration not stated) | -5.53 |
| CN1CCCC[C@@H]2[C@H]1[C@@H](c1ccccc1)CCN2C(=O)c1ccncc1 | -5.64 |
| CC(=O)N1CCN(c2cc(CCNC(=O)C(C)C)nc(C3CC3)n2)CC1 | -7.84 |
| CN1CC(c2cc(O)nc(NCc3cccc(F)c3)n2)CC1=O (configuration not stated) | -10.4 |
| CCc1cc(C(=O)N2CCCC2c2nc(C)c(CC)c(O)n2)on1 (configuration not stated) | -6.15 |

| SMILES | cytotoxicity at 70.5 h [%] |
| --- | --- |
| CN(CC(=O)NCc1cc2ccccc2o1)S(C)(=O)=O | -0.935 |
| CCN(CCC#N)Cn1ncc2cn(-c3ccccc3)nc2c1=O | -2.4 |
| COc1ccc(Cl)cc1NCC(=O)N(Cc1ccccn1)C1CC1 | -4.9 |
| COc1ccccc1OCCNC(=O)NCc1nc(C)no1 | -6.75 |
| COCCn1c(C(=O)NC(C(N)=O)C(C)C)cc2ccccc21 (configuration not stated) | -6.02 |
| O=C(NC(C1CC1)C1CC1)c1cccc[n+]1[O-] | -2.48 |
| COc1c(C2CCCN2c2ncnc3ccsc23)c(C)nn1C (configuration not stated) | -3.57 |
| CNS(=O)(=O)CC1CCCN1c1ccc(Br)cn1 (configuration not stated) | -0.632 |
| CCc1cnc(CN(C)C2CCN(c3sccc3C#N)C2=O)s1 (configuration not stated) | 13.4 |
| O=C(NC1(C(=O)NCC2CC2)CCCC1)C1Cc2cc(F)ccc2O1 (configuration not stated) | -4.27 |
| COCCn1c(C(=O)NCC(C)C(=O)O)cc2ccccc21 (configuration not stated) | 0.983 |
| COC(=O)C1CCCCN1C(=O)c1ccc(N(C)C)cc1F (configuration not stated) | 2.71 |
| Cc1nc(CN(C)C(=O)Nc2cccc(COC(C)C)c2)no1 | -1.56 |
| CCCN(C(=O)CN1CCN(CC(C)O)CC1)C1=CCCCC1 (configuration not stated) | 35.9 |
| CCC(C)CS(=O)(=O)NCCc1csc(N2CCCC2)n1 (configuration not stated) | -1.21 |
| CCc1ncc(CN(C)C2CCN(c3sccc3C#N)C2=O)s1 (configuration not stated) | -2.11 |
| CN(CC(=O)N(C)C)Cc1ccc(C#N)cc1F | 11.5 |
| NCC1(CN2CCOCC2)CCCCC1 | 14.2 |
| CC(NC(=O)c1cccc[n+]1[O-])C1CC1 (configuration not stated) | -4.24 |

| SMILES | cytotoxicity at 70.5 h [%] |
| --- | --- |
| CCN(Cc1ccc(C#N)cc1F)C(=O)C(C)(C)C | -0.767 |
| CC(C)c1cc(C(=O)N2Cc3ccccc3CC2C(=O)O)nn1C (configuration not stated) | -2.03 |
| CN(CC(=O)N(C)C(c1ccc(Cl)cc1)c1cccnc1)C1CC1 (configuration not stated) | -5.57 |
| COCCNC(=O)c1ccc(NCc2csc(C)n2)cc1Cl | -2.04 |
| CN(Cc1ccccc1F)C(=O)c1cc(Cl)c[nH]1 | -2.89 |
| CN(Cc1ccsc1)C(=O)COC(=O)c1cc(Cl)c[nH]1 | -2.89 |
| CC1COCCN1C(=O)COc1ccc(Oc2ccccn2)cc1 (configuration not stated) | 1.4 |
| O=C(Nc1cc(C(F)(F)F)c[nH]c1=O)C1CCCNC1 (configuration not stated) | -8 |
| O=C(Nc1cc(C(F)(F)F)c[nH]c1=O)C1CCNCC1 | -12.8 |
| O=C(Nc1cc(C(F)(F)F)c[nH]c1=O)C1CCCN1 (configuration not stated) | -10.7 |
| N#CCCCS(=O)(=O)NC1(c2cccc(Cl)c2)CC1 | -9.01 |
| Cc1cc(NCc2cn(C)nc2-c2cccnc2)n(C)n1 | -2.96 |
| O=C(c1ccnc(C2CCNCC2)c1)N1CCCOCC1 | -1.42 |
| Fc1ccc(Cc2cnc(C3CCCN3)cn2)cc1 (configuration not stated) | 16.8 |
| O=S(=O)(c1ccc(Cl)cc1)N1CCc2nc(C3CCNCC3)ncc2C1 | -4.46 |
| Cc1noc(C)c1S(=O)(=O)N1CCc2nc(C3CCNCC3)ncc2C1 | -6.62 |
| O=C(Nc1cc(C(F)(F)F)c[nH]c1=O)C1CCCCN1 (configuration not stated) | -8.9 |
| O=C(c1cc(C2CCCCN2CCO)n[nH]1)N1CCOCC1 (configuration not stated) | -9.24 |
| Cc1ccccc1OC1CCN(CC(=O)Nc2ccn(C)n2)CC1 | -7.79 |

Reference: ChEMBL document CHEMBL3507680, “University of Dundee, Gates Library screen for HepG2 cell viability”
